Assay results reported in article PMC12040169 (PLOS Biology, 2025).

Assay: in vitro
Conditions: human, hela cells, % viability

SMILES | viability at 28.5 h, 10 µM
O=C1Nc2ccc(Br)cc2C(=O)N2CCN(C(=O)c3ccccc3)C[C@H]12 [CBK289589] | 121%
Nc1nnc(-c2ccc(Oc3nc(N4CCOCC4)nc(N4CCOCC4)n3)cc2)s1 [CBK266305] | 96.1%
CCCn1nnc(NC(=O)COc2ccc3ccccc3c2)n1 [CBK265923] | 101%
COc1cc(/C=N/Nc2nc(-c3ccccc3)cc(-c3ccc(OC)c(OC)c3)n2)ccc1O [CBK262841] | 52.2%
Cc1cc(NC(=O)COc2ccccc2)nc2c1c(=O)oc1ccccc12 [CBK287436] | 99.8%
O=c1c(N2CCCNCC2)nccn1CCOc1ccc(Br)cc1 [CBK028613T] | 95%
CN1CCN(CCC(=O)Nc2ccc(Cl)c(C(F)(F)F)c2)CC1 [CBK265995] | 89.9%
OC1(c2ccc(F)cc2)CCCC2CN(Cc3cccnc3)CC21 (centres unmarked) [CBK284377] | 86.8%
COc1ncnc(C)c1-c1cc(C)c(OC)c(C)c1 [CBK306852] | 100%
Fc1ccc(NC(=S)NNC(=S)Nc2cccc3ccccc23)c(F)c1 [CBK266982] | 89.8%
CCCCN(C)S(=O)(=O)NCc1cn2ccccc2n1 [CBK306329] | 97.9%
Cc1cc(/C=C2/NC(=O)NC2=O)c(C)n1-c1ccc(S(N)(=O)=O)cc1 [CBK264747] | 106%
O=C1/C(=C/c2ccccc2)S/C(=N/N=C/c2ccccc2)N1c1ccc(O)cc1 [CBK262803] | 89.6%
O=C(Cc1ccccc1F)N1CCCC(c2cnccn2)C1 (centres unmarked) [CBK284601] | 96.8%
COc1cc(NC(=S)NCc2ccc(S(N)(=O)=O)cc2)cc(OC)c1 [CBK264935] | 108%
NC(=O)C1(Cc2cccc(-c3cccs3)c2)CCN(C(=O)Cc2ccccc2)CC1 [CBK286272] | 84.8%
CC(C)Nc1nccnc1Sc1ccccc1O [CBK089492] | 92.1%
C=Cn1cc(CN2C3CCC2CC(O)(c2ccc(C)cc2)C3)c(C)n1 (centres unmarked) [CBK283015] | 90.5%
COc1ccc2[nH]cc(CCNC(=O)CC(C)O)c2c1 (centres unmarked) [CBK116201] | 106%
O=C(Nc1ccc(F)cc1)c1ccc(NS(=O)(=O)Cc2ccccc2[N+](=O)[O-])cc1 [CBK050405] | 93%
O=C(CSc1ccccn1)Nc1ccc2ccccc2c1 [CBK263860] | 101%
Cc1ccc(Cn2nc(NC(=O)C3CCCCC3)c3ccccc32)cc1 [CBK048217] | 96.5%

SMILES | viability at 28.5 h, 10 µM
COC(=O)c1csc(-c2ccc(Cl)cc2Cl)n1 [CBK067776] | 103%
CC(C)(C)OC(=O)N1CCC[C@@H](C(=O)c2cccnc2)C1 [CBK284284] | 98.2%
S=C(NCC1CCCCC1)Nc1ncc(Cl)cc1Cl [CBK067053] | 91%
Cc1sc(NC(=O)COc2ccccc2)c(C(N)=O)c1-c1ccccc1 [CBK268164] | 97.8%
CC(C)Nc1cc(Cl)ncn1 [CBK081511] | 108%
Cc1cc(NS(=O)(=O)c2cccc(Cl)c2C)n[nH]1 [CBK024382] | 91.2%
Cc1noc2nc(-c3cccnc3)cc(C(=O)O)c12 [CBK288207] | 92.4%
O=C(c1ccccc1)N1CCCC(c2cccc(Cc3ccc(Cl)cc3)n2)C1 (centres unmarked) [CBK286502] | 99.5%
COC(=O)Cn1nnc(-c2ccccc2)n1 [CBK069215] | 84.8%
FC(F)(F)c1cccc(SCCc2ccccn2)n1 [CBK103719] | 97.3%
CSc1nnc2c(n1)OC(/C=C/c1ccccc1)N(C(C)=O)c1ccccc1-2 (centres unmarked) [CBK264453] | 99.7%
Nc1ncc(-c2ccc3c(c2)OCO3)nc1Nc1ccc2[nH]ccc2c1 [CBK063667] | 94.6%
Cc1cc(Cl)c(OCCn2c3ccccc3c3ccccc32)c(Br)c1 [CBK264826] | 92.2%
CN(C)Cc1ccc2nc(C(F)(F)F)cc(SCCC(=O)O)c2c1 [CBK149715T] | 91.4%
Cc1ccc(N(CC(=O)N/N=C2\C(=O)Nc3ccccc32)S(=O)(=O)c2ccccc2)cc1 [CBK262169] | 105%
Cc1nc2ccc(C(=O)O)cc2c2c1CC(CN)O2 (centres unmarked) [CBK286974] | 97.7%
NS(=O)(=O)c1ccc(NC(=S)NNC(=O)c2ccc(Br)o2)cc1 [CBK266972] | 95.8%
O=C(O)CCC(NC(=O)c1ccc(-c2ccc(F)cc2)s1)C(=O)O (centres unmarked) [CBK295172] | 102%
O=C(O)CCC(=O)Nc1ccc(Br)c2cccnc12 [CBK265186] | 105%
Cc1noc(C)c1CN1CCC(C(O)c2ccccc2)CC1 (centres unmarked) [CBK305783] | 93.9%
COc1cc(C)c(Nc2cccc(-c3ccsc3)n2)cc1OC [CBK037025] | 104%
Cc1ccc(NC(=O)N(Cc2ccccc2Br)CC(C)(C)CN)cc1[N+](=O)[O-] [CBK002436C] | 111%

SMILES | viability at 28.5 h, 10 µM
CC(=O)Nc1c(O)nc(SCC(=O)Nc2ccccc2C(N)=O)[nH]c1=O [CBK268031] | 97.8%
O=C(c1nc2ccccc2s1)C1CCNCC1 [CBK285397] | 103%
COc1ccc(CN2CCN(CCCc3ccccc3)CC2)c(OC)c1 [CBK263378] | 95.1%
COc1ccc(N2CCN(c3cncc(-c4cccnc4)n3)CC2)cc1OC [CBK066086] | 90.5%
Cc1n[nH]c(C)c1CCC(=O)N/N=C/c1ccncc1 [CBK262888] | 112%
CC(C)OC(=O)c1ccc(NC(=O)c2csc3c2CCCC3)cc1 [CBK058649] | 106%
CC(C)(N)CNC(=O)c1cc(-c2ccc(Cl)cc2)[nH]n1 [CBK116554] | 91.5%
Cc1cc(C(=O)Nc2ccccc2N2CCOCC2)c(C)o1 [CBK057243] | 111%
COc1ccc(CCNC(=O)N2CCC(C(=O)O)CC2)cc1OC [CBK161404] | 110%
O=C(CN1CCN(CCCc2c[nH]c3ccc(F)cc23)CC1)N(c1ccccc1)C1CCCCC1 [CBK074710] | 92.1%
CO[C@@]12CC[C@H](OCC(=O)O)C[C@@H]1N(Cc1c(C)cnn1C)CC2 [CBK306638] | 95.6%
COc1cccc(-c2nnc(SCC(=O)Nc3cccc([N+](=O)[O-])c3)n2C)c1 [CBK266074] | 106%
OC(COCc1ccc2c(c1)OCO2)CN1CCN(c2ccccn2)CC1 (centres unmarked) [CBK278246C] | 105%
Cc1cccn2c(CN3CC(O)C3)c(C(=O)N3CCOCC3)nc12 [CBK306857] | 104%
Cc1ccc(-c2cc(C(=O)NCCCN3CCOCC3)c3cc(Cl)ccc3n2)o1 [CBK267737] | 108%
Cc1nc(C)n(C2CN(S(=O)(=O)c3ccc4scnc4c3)C2)n1 [CBK305889] | 95.6%
O=C1NCCNC(=O)C2(C/C=C/COc3ccccc31)CCN(C(=O)c1cncs1)CC2 [CBK292023] | 95.3%
CN(C)CCCNC(=O)C1CCCN(c2nc3c(-c4ccccc4)csc3c(=O)[nH]2)C1 (centres unmarked) [CBK215504] | 94.6%
Clc1nccnc1NCCOc1ccccc1 [CBK113564] | 93.8%
Cc1cc(C(=O)N2CCC(C(=O)NC(c3ccccc3)c3ccc4ccccc4n3)CC2)no1 (centres unmarked) [CBK059641] | 100%
O=C1CSC2(CCCCC2)N1Nc1ccccc1 [CBK020047] | 101%
